Earlier results, collected in article PMC9952374, “De Novo Design of Imidazopyridine-Tethered Pyrazolines That Target Phosphorylation of STAT3 in Human Breast Cancer Cells” (Bioengineering, 2023).

Key:
[1] = system: IL-6-induced STAT3 phosphorylation in patient-derived HGG cells; set-up: method as in PMID 31361777; conditions: cited from earlier work
breast cancer cells = system: breast cancer cells; set-up: method as in PMID 33126089; conditions: read-out: IC50 anti-proliferation against breast cancer cells; cited from earlier work
[2] = system: phospho-STAT3 in hepatocellular carcinoma cells; set-up: method as in PMID 30261753; conditions: cited from earlier work

In the case of `CC(C)CCc1cc(-c2ccc(Br)cc2)n(-c2ccc(S(N)(=O)=O)cc2)n1` [MNS1-Leu], the “Akt, STAT1, JAK2, or ERK1/2 phosphorylation” value [1] is listed as “without adversely affecting” and the “IL-6-induced STAT3 phosphorylation” value [1] is listed as “inhibited”.
In the case of `COc1cc(Nc2cc(-c3ccnn3C)cc3cc(C(C)=O)oc23)cc(OC)c1` [Compound C6], the IC50 (breast cancer cells) is listed as 160 nM.
For `COc1cc(-c2cc3ccccc3[nH]2)[nH]c1-c1nc2cc(Br)cnc2[nH]1` [compound 16], the “level of phospho-STAT3 and downstream signaling cascades” value [2] is listed as “reduce the level”.
